Values quoted from earlier work as cited in patent US12303619B2, “Polymer implants” (Foundry Therapeutics, Inc., priority 2018, dated 2025).

- pKa: about 8.0
SMILES: CCCCN1CCCCC1C(=O)Nc1c(C)cccc1C (stereo not shown) [bupivacaine]
